We go through 15 compounds from US11649231B2, “Compound as mTOR inhibitor and use thereof” (MEDICINAL BIOCONVERGENCE RESEARCH CENTER, priority 2018, dated 2023).

For the assay, the system named is mTORC1. The assay can be described thus: mTORC1 activity inhibitory effect at 20 μM, phospho-p70 S6 Kinase Western blot in SW620 cells. To be noted: leucine-free 1 h 30 min, then leucine 15 min, vs DMSO control.
Experimental: In order to evaluate the inhibitory effect of the compounds according to the present invention on the activity of mTORC1, an experiment was performed in the following manner.
In the case of `Cn1cc(/C=C2\SC(=S)N(Cc3ccco3)C2=O)cn1` [Example 1-2, (5Z)-3-(2-furylmethyl)-5-[(1-methylpyrazol-4-yl)methylene]-2-thioxo-thiazolidin-4-one], the “mTORC1 inhibitory effect (%)” value is listed as 74.4 ± 0.2%. As for `CN1C(=O)/C(=C/c2cnn(-c3ccccc3)c2)SC1=S` [Example 1-3, (5Z)-3-methyl-5-[(1-phenylpyrazol-4-yl)methylene]-2-thioxo-thiazolidin-4-one], the figure is 53.97 ± 1.49%. Then `CCN1C(=O)/C(=C/c2cnn(-c3ccccc3)c2)SC1=S` [Example 1-4, (5Z)-3-ethyl-5-[(1-phenylpyrazol-4-yl)methylene]-2-thioxo-thiazolidin-4-one], with 68.36 ± 1.69%; and `C=CCN1C(=O)/C(=C/c2cnn(-c3ccccc3)c2)SC1=S` [Example 1-5, (5Z)-3-allyl-5-[(1-phenylpyrazol-4-yl)methylene]-2-thioxo-thiazolidin-4-one], with 45.82 ± 3.59%. Consider `CN1C(=O)/C(=C/c2cnn(-c3ccccc3Cl)c2)SC1=S` [Example 1-10, (5Z)-5-[[1-(2-chlorophenyl)pyrazol-4-yl]methylene]-3-methyl-2-thioxo-thiazolidin-4-one], for which the “mTORC1 inhibitory effect (%)” value is listed as 50.52 ± 3.69%. For the compound `CCN1C(=O)/C(=C/c2cnn(-c3ccccc3Cl)c2)SC1=S` [Example 1-11, (5Z)-5-[[1-(2-chlorophenyl)pyrazol-4-yl]methylene]-3-ethyl-2-thioxo-thiazolidin-4-one], the “mTORC1 inhibitory effect (%)” value stood at 67.22 ± 1.41%.

In the case of `C=CCN1C(=O)/C(=C/c2cnn(-c3ccccc3Cl)c2)SC1=S` [Example 1-12, (5Z)-3-allyl-5-[[1-(2-chlorophenyl)pyrazol-4-yl]methylene]-2-thioxo-thiazolidin-4-one], the “mTORC1 inhibitory effect (%)” value is on record as 70.93 ± 2.39%. On to `CN1C(=O)/C(=C/c2cnn(-c3cccc(Cl)c3)c2)SC1=S` [Example 1-14, (5Z)-5-[[1-(3-chlorophenyl)pyrazol-4-yl]methylene]-3-methyl-2-thioxo-thiazolidin-4-one], for which the “mTORC1 inhibitory effect (%)” value is 46.72 ± 14.22%.

For `CCN1C(=O)/C(=C/c2cnn(-c3cccc(Cl)c3)c2)SC1=S` [Example 1-15, (5Z)-5-[[1-(3-chlorophenyl)pyrazol-4-yl]methylene]-3-ethyl-2-thioxo-thiazolidin-4-one], the “mTORC1 inhibitory effect (%)” value is 72.46 ± 1.79%. As for `C=CCN1C(=O)/C(=C/c2cnn(-c3cccc(Cl)c3)c2)SC1=S` [Example 1-16, (5Z)-3-allyl-5-[[1-(3-chlorophenyl)pyrazol-4-yl]methylene]-2-thioxo-thiazolidin-4-one], the figure is 3.74 ± 10.43%; as for `CN1C(=O)/C(=C/c2cnn(-c3ccc(Cl)cc3)c2)SC1=S` [Example 1-18, (5Z)-5-[[1-(4-chlorophenyl)pyrazol-4-yl]methylene]-3-methyl-2-thioxo-thiazolidin-4-one], 50.17 ± 12.77%; as for `CCN1C(=O)/C(=C/c2cnn(-c3ccc(Cl)cc3)c2)SC1=S` [Example 1-19, (5Z)-5-[[1-(4-chlorophenyl)pyrazol-4-yl]methylene]-3-ethyl-2-thioxo-thiazolidin-4-one], 54.17 ± 8.55%. For the compound `Cc1ccc(-n2cc(/C=C3\SC(=S)NC3=O)cn2)cc1` [Example 1-20, (5Z)-5-[[1-(p-tolyl)pyrazol-4-yl]methylene]-2-thioxo-thiazolidin-4-one], the “mTORC1 inhibitory effect (%)” value is reported as 83.30 ± 1.76%. On to `Cc1ccc(-n2cc(/C=C3\SC(=S)N(C)C3=O)cn2)cc1` [Example 1-21, (5Z)-3-methyl-5-[[1-(p-tolyl)pyrazol-4-yl]methylene]-2-thioxo-thiazolidin-4-one], for which the “mTORC1 inhibitory effect (%)” value was 71.18 ± 5.04%. Take `CCN1C(=O)/C(=C/c2cnn(-c3ccc(C)cc3)c2)SC1=S` [Example 1-22, (5Z)-3-ethyl-5-[[1-(p-tolyl)pyrazol-4-yl]methylene]-2-thioxo-thiazolidin-4-one]: the “mTORC1 inhibitory effect (%)” value turned out to be 77.21 ± 0.84%.
